Measured values taken from the NIST ThermoML archive (doi:10.1021/je7000446).

Test: relative permittivity at various frequencies (dimensionless)
Conditions: Fluid (supercritical or subcritical phases), Frequency=0.06 MHz, Parallel plate capacitor

CC(F)(F)F [1,1,1-trifluoroethane]
Conditions | relative permittivity
302.8 K, 1600 kPa | 9.28
302.8 K, 4000 kPa | 9.44
302.8 K, 6200 kPa | 9.56
302.8 K, 8200 kPa | 9.67
302.8 K, 10200 kPa | 9.77
302.8 K, 12300 kPa | 9.86
302.8 K, 16200 kPa | 10.02
302.8 K, 18500 kPa | 10.1
302.8 K, 20100 kPa | 10.16
302.8 K, 22000 kPa | 10.24
302.8 K, 24200 kPa | 10.31
302.8 K, 26300 kPa | 10.38
302.8 K, 28300 kPa | 10.44
302.8 K, 30700 kPa | 10.51
313.2 K, 1700 kPa | 8.61
313.2 K, 2700 kPa | 8.69
313.2 K, 4200 kPa | 8.82
313.2 K, 6300 kPa | 8.96
313.2 K, 8000 kPa | 9.05
313.2 K, 8800 kPa | 9.12
313.2 K, 14200 kPa | 9.39
313.2 K, 16300 kPa | 9.49
313.2 K, 18400 kPa | 9.58
313.2 K, 20400 kPa | 9.67
313.2 K, 21800 kPa | 9.73
313.2 K, 24200 kPa | 9.81
313.2 K, 26100 kPa | 9.87
313.2 K, 28400 kPa | 9.9
313.2 K, 30300 kPa | 9.95
313.2 K, 31600 kPa | 9.98
322.8 K, 2400 kPa | 8.08
322.8 K, 4500 kPa | 8.27
322.8 K, 6500 kPa | 8.43
322.8 K, 8400 kPa | 8.56
322.8 K, 10300 kPa | 8.68
322.8 K, 12100 kPa | 8.79
322.8 K, 14300 kPa | 8.89
322.8 K, 16300 kPa | 8.98
322.8 K, 18300 kPa | 9.07
322.8 K, 20200 kPa | 9.16
322.8 K, 22300 kPa | 9.24
322.8 K, 24400 kPa | 9.32
322.8 K, 26200 kPa | 9.38
322.8 K, 27900 kPa | 9.43
322.8 K, 28800 kPa | 9.46
322.8 K, 31000 kPa | 9.49
333 K, 1500 kPa | 7.35
333 K, 2600 kPa | 7.45
333 K, 4400 kPa | 7.66
333 K, 6300 kPa | 7.84
333 K, 8400 kPa | 8.01
333 K, 10300 kPa | 8.14
333 K, 12400 kPa | 8.26
333 K, 14400 kPa | 8.38
333 K, 16300 kPa | 8.48
333 K, 18300 kPa | 8.58
333 K, 20100 kPa | 8.66
333 K, 21100 kPa | 8.7
333 K, 22400 kPa | 8.73
333 K, 24100 kPa | 8.8
333 K, 26000 kPa | 8.87
333 K, 27400 kPa | 8.93
333 K, 29300 kPa | 8.99
343.4 K, 2200 kPa | 6.66
343.4 K, 3000 kPa | 6.79
343.4 K, 4000 kPa | 6.95
343.4 K, 5000 kPa | 7.06
343.4 K, 6200 kPa | 7.2
343.4 K, 8100 kPa | 7.4
343.4 K, 9200 kPa | 7.47
343.4 K, 10400 kPa | 7.58
343.4 K, 12300 kPa | 7.71
343.4 K, 14200 kPa | 7.83
343.4 K, 16200 kPa | 7.94
343.4 K, 18200 kPa | 8.04
343.4 K, 20300 kPa | 8.14
343.4 K, 22200 kPa | 8.22
343.4 K, 24200 kPa | 8.31
343.4 K, 26000 kPa | 8.37
343.4 K, 28000 kPa | 8.45
343.4 K, 29500 kPa | 8.5
353.4 K, 2600 kPa | 6.05
353.4 K, 4600 kPa | 6.39
353.4 K, 6400 kPa | 6.65
353.4 K, 8100 kPa | 6.84
353.4 K, 10000 kPa | 6.99
353.4 K, 12200 kPa | 7.15
353.4 K, 14400 kPa | 7.29
353.4 K, 16400 kPa | 7.41
353.4 K, 18300 kPa | 7.52
353.4 K, 20200 kPa | 7.6
353.4 K, 22200 kPa | 7.7
353.4 K, 24400 kPa | 7.78
353.4 K, 26400 kPa | 7.86
353.4 K, 28600 kPa | 7.95
363.8 K, 3600 kPa | 5.46
363.8 K, 4300 kPa | 5.73
363.8 K, 6100 kPa | 6.09
363.8 K, 8200 kPa | 6.37
363.8 K, 10200 kPa | 6.57
363.8 K, 12200 kPa | 6.74
363.8 K, 14200 kPa | 6.88
363.8 K, 16200 kPa | 7.01
363.8 K, 18200 kPa | 7.12
363.8 K, 20300 kPa | 7.22
363.8 K, 22200 kPa | 7.31
363.8 K, 24300 kPa | 7.41
363.8 K, 26000 kPa | 7.48
363.8 K, 28200 kPa | 7.56
363.8 K, 30000 kPa | 7.63
363.8 K, 31200 kPa | 7.66
372.9 K, 4000 kPa | 4.66
372.9 K, 6300 kPa | 5.55
372.9 K, 8200 kPa | 5.86
372.9 K, 10100 kPa | 6.08
372.9 K, 12200 kPa | 6.27
372.9 K, 14200 kPa | 6.42
372.9 K, 16000 kPa | 6.53
372.9 K, 18000 kPa | 6.65
372.9 K, 20200 kPa | 6.75
372.9 K, 22200 kPa | 6.85
372.9 K, 24200 kPa | 6.94
372.9 K, 26200 kPa | 7.02
372.9 K, 28100 kPa | 7.09
372.9 K, 29800 kPa | 7.15
372.9 K, 30700 kPa | 7.18
383.1 K, 4800 kPa | 3.97
383.1 K, 5800 kPa | 4.7
383.1 K, 6800 kPa | 5.06
383.1 K, 8200 kPa | 5.35
383.1 K, 10400 kPa | 5.65
383.1 K, 12000 kPa | 5.8
383.1 K, 14200 kPa | 6.09
383.1 K, 16200 kPa | 6.24
383.1 K, 18400 kPa | 6.38
383.1 K, 20000 kPa | 6.48

COC(F)(F)C(F)(F)F [methyl pentafluoroethyl ether]
Conditions | relative permittivity
312.9 K, 1500 kPa | 6.94
312.9 K, 3200 kPa | 7
312.9 K, 6100 kPa | 7.08
312.9 K, 8300 kPa | 7.14
312.9 K, 10400 kPa | 7.2
312.9 K, 12500 kPa | 7.25
312.9 K, 14400 kPa | 7.29
312.9 K, 16500 kPa | 7.34
312.9 K, 18300 kPa | 7.37
312.9 K, 26200 kPa | 7.51
312.9 K, 27800 kPa | 7.53
318 K, 1500 kPa | 6.78
318 K, 3200 kPa | 6.85
318 K, 6300 kPa | 6.95
318 K, 8300 kPa | 7.01
318 K, 10400 kPa | 7.06
318 K, 12400 kPa | 7.11
318 K, 14100 kPa | 7.15
318 K, 16400 kPa | 7.19
318 K, 18300 kPa | 7.22
318 K, 20400 kPa | 7.27
318 K, 22200 kPa | 7.29
318 K, 23800 kPa | 7.31
323.4 K, 2000 kPa | 6.65
323.4 K, 3200 kPa | 6.69
323.4 K, 4400 kPa | 6.73
323.4 K, 6600 kPa | 6.79
323.4 K, 8300 kPa | 6.84
323.4 K, 10100 kPa | 6.89
323.4 K, 12200 kPa | 6.94
323.4 K, 14000 kPa | 7
323.4 K, 16000 kPa | 7.05
323.4 K, 18000 kPa | 7.09
323.4 K, 20000 kPa | 7.12
323.4 K, 22200 kPa | 7.16
323.4 K, 24400 kPa | 7.2
323.4 K, 26300 kPa | 7.24
323.4 K, 28400 kPa | 7.27
